Data on four molecules can be found in patent US20030229044A1, “Use of statins and other immunomodulatory agents in the treatment of autoimmune disease” (priority 2002, published 2003).

Entries after “also recorded” stand apart in the source; their conditions may differ.

For data set [1], the system named is MOG p35-55-induced EAE in C57BL/6 mice. Nature of the data set: MOG p35-55-induced chronic EAE in C57BL/6 mice. It is filed as in vivo, mouse. The text has this: (§1) Animals. Female SJL/J, B10.PL and C57BL/6 mice (8 to 12-week-old) were purchased from the Jackson Laboratory (Bar Harbor, Me.). MBP Ac 1-11 transgenic (tg) TCR mice were backcrossed with B10.PL mice to obtain susceptibility to EAE. All animal protocols were approved by the Division of comparative Medicine at Stanford and in accordance with the National Institutes of Health guidelines.
(§2) Peptides. Peptides were synthesized on a peptide synthesizer (model 9050; MilliGen, Burlington, Mass.) by standard 9-fluorenylmethoxycarbonyl chemistry. Peptides were purified by HPLC. Structures were confirmed by amino acid analysis and mass spectroscopy.
(§3) EAE Induction. Relapsing remitting EAE was induced in SJL/J mice with 100 μg of PLP139-151 peptide, chronic progressive EAE was induced either in C57BL/6 or MBP Ac1-11 TCR Tg mice with 100 μg of MOG35-55 peptide or 100 μg of MBP Ac1-11 peptide, respectively. All peptides were dissolved in PBS at a concentration of 2 mg/ml and emulsified with an equal volume of CFA, which consists of incomplete Freund's adjuvant supplemented with 4 mg/ml heat-killed mycobacterium tuberculosis H37Ra (Difco Laboratories, Detroit, Mich.). […] Mice were clinically scored as follows: 0, no paralysis; 1, tail weakness or paralysis; 2, hindlimb weakness or paralysis; 3, hindlimb paralysis and forelimb weakness; 4, hindlimb and forelimb paralysis; and 5, moribund or death. […]

The subject of data set [2] is PLP p139-151-induced EAE in SJL/J mice. The data set can be described thus: PLP p139-151-induced chronic relapsing EAE in SJL/J mice. Type of data set: in vivo, mouse.
From the text: as §1, §2, §3

Data set [3] relates to MBP Ac1-11-induced EAE in MBP Ac1-11 TCR Tg mice. The data set can be described thus: MBP Ac1-11-induced acute EAE in MBP Ac1-11 Tg mice. It is filed as in vivo, mouse.
From the text: as §1, §2
EAE Induction. […] All peptides were dissolved in PBS at a concentration of 2 mg/ml and emulsified with an equal volume of CFA, which consists of incomplete Freund's adjuvant supplemented with 4 mg/ml heat-killed mycobacterium tuberculosis H37Ra (Difco Laboratories, Detroit, Mich.). Mice were injected subcutaneously with 0.1 ml of the peptide emulsion. […] Mice were clinically scored as follows: 0, no paralysis; 1, tail weakness or paralysis; 2, hindlimb weakness or paralysis; 3, hindlimb paralysis and forelimb weakness; 4, hindlimb and forelimb paralysis; and 5, moribund or death. […]

Data set [4] deals with PLP p139-151-stimulated spleen and lymph node cells. The data set can be described thus: Ag specific ex-vivo T cell proliferation assay. Type of data set: cell-based, mouse. The text has this: Ag specific ex-vivo T cell proliferation assay.
The test system of data set [5] is lymph node cells and spleen cells from EAE donors. Nature of the data set: Cytokine profile determination by ELISA. It is filed as cell-based, mouse. As to the method: Cytokine Profile Determination. Lymph node cells and spleen cells from EAE donors were stimulated in vitro (2.5×10^6 cells/ml) in 24-well plates with or without the encephalogenic peptide or with […] as positive control. Cell culture supernatants were collected at different time points for measurements of cytokine levels: 48 hours for IL-2, 72 hours for IFN-γ and TNF α, and 120 hours for IL-4 and IL-10. Cytokine levels were determined using specific ELISA kits for the corresponding cytokines according to the manufacturers protocols (PharMingen, San Diego, Calif., USA).
For orientation: ELISA stands for enzyme-linked immunosorbent assay.

Data set [6] relates to STAT6. The data set can be described thus: Western blot for STAT6 phosphorylation in draining lymph node cells. Type of data set: in vivo, mouse. The following applies: lymph nodes of SJL/J mice, 1 mg/kg and 10 mg/kg, 10 days after EAE induction; PBS: none detectable. Background: In western blotting, separated proteins are transferred to a membrane and probed.
Method: All procedures were handled on ice. As a positive control, lymph node cells from naive mice were isolated and cultured for one hour with mouse recombinant IL-4 (10 ng/ml) or INF-γ (100 units/ml), for STAT6 and STAT4 expression respectively. Protein concentrations were determined by BCA protein assay (Pierce). Lysate was added to 3×SDS loading buffer (Cell Signaling Technology) with 40 mM DTT. Products were separated by electrophoresis on a 4-15% SDS-PAGE gradient gel (BioRad). Pre-stained markers (Invitrogen) were used to determine MW. Gels were blotted to PVDF membranes at 100 V in 25 mM Tris, 192 mM glycine and 20% (v/v) methanol, then blocked 1 hr at RT with Tris-buffered saline (TBS) containing 0.1% Tween-20 and 5% nonfat dry milk. After washing in TBS and 0.1% Tween 20, membranes were hybridized overnight at 4° C. with anti-phospho-STAT6 Antibody or anti-phospho-STAT4 antibody (Zymed, South San Francisco, Calif.) diluted 1:1000 in TBS, 0.1% Tween 20 and 5% BSA, the membranes were then processed by ECL Plus prebetween protocol (Amersham Life Sciences) for visualization of the bands by chemiluminescence. […]
Data set [7] has as its system MHC II expression (CIITA p IV gene). The conditions noted are these: through the effect on the CIITA p IV gene; cited from earlier work.
Data set [8] deals with microglia and astrocytes. The conditions noted are these: cited from earlier work.
Data set [9] has as its system EAE in Lewis rats. The data set can be described thus: MBPp85-99-induced EAE in Lewis rats, ordered peptides. It is filed as in vivo, rat. The conditions noted are these: single intraperitoneal dose of 0.5 mg peptide on day of mean disease onset. Here is the method: FIG. 8 is a graph depicting the prevention of EAE in rats treated with ordered peptides. […] Animals were injected with an emulsion of 0.1 mg of MBPp85-99 in complete Freund's adjuvant for EAE induction. Ten days later, when the clinical manifestations of disease became apparent, a single intra peritoneal dose of peptide {SEQ ID NO:4} […] (squares), {SEQ ID NO:5} […] (triangles), or PBS (circles) was administered. Results are expressed as mean disease score of groups of six animals.
Animals. Female Lewis rats (6-8 weeks old), were purchased from Harlan Sprague Dawley (Indianapolis, Ind.)
Peptides. For immunization and disease reversal, peptides were synthesized on a peptide synthesizer (model 9050: MilliGen, Burlington, Mass.) by standard 9-fuorenylmethoxycarbonyl chemistry. Peptides were purified by HPLC. Structure was confirmed by amino acid analysis and mass spectroscopy. Peptides used for the experiments were: {SEQ ID NO:11} […] (MBPp85 99), {SEQ ID NO:4} […], {SEQ ID NO:5} […].
EAE induction. […] Rats were injected subcutaneously with 0.1 mi of the peptide emulsion.
EAE treatment. Rats previously immunized with MBPp85-99 for EAE induction were scored from day eight after peptide injection. On the day of mean disease onset, animals were injected intraperitoneally with a solution of 0.5 mg of peptide in PBS (one dose of 0.25 ml).

In data set [10] the test system is NOD mice. The following applies: as proteins, under tolerizing conditions; cited from earlier work.
Setting [11] is: ELISA, SJL/J mice, 1 and 10 mg/kg.

In the case of `CC(C)c1c(C(=O)Nc2ccccc2)c(-c2ccccc2)c(-c2ccc(F)cc2)n1CC[C@@H](O)C[C@@H](O)CC(=O)O` [atorvastatin], the “EAE (mean EAE score)” value in [1] (daily oral 1 mg/kg or 10 mg/kg starting at the time of EAE onset, C57Bl/6 female mice) is recorded as “suppressed EAE induction”. For the same molecule, the “EAE (mean EAE score)” value in data set [1] (treatment after onset, C57Bl/6 mice) is “ameliorated EAE”. Also, the “relapsing EAE (mean EAE score)” value in data set [2] (treatment at onset) is given as “effective in prevention of relapsing EAE”. Further, the “ongoing relapsing EAE (mean EAE score)” value in data set [2] (treatment begun after recovery from acute EAE) is “reversal of ongoing relapsing EAE”. Also, the “acute EAE progression” value in data set [3] is given as “successfully prevented acute EAE progression”. Moreover, the “PLP p139-151-specific proliferative responses” value in [4] (3H-thymidine incorporation, SJL/J mice treated with 1 or 10 mg/kg) is “suppressed in a dose-related fashion”. The cell death entry in data set [4] (in vitro cultures of cells from treated mice) was “not observed increased cell death”. Moreover, in data set [5] (ELISA, SJL/J mice), the “secretion of IL-10” value is “observed at the higher treatment dose”. Besides, in data set [5] (setting [11]), the IL-4 production result is given as “induced at both treatment doses” and the “Production of IL-2” value is recorded as “reduced, although to a much greater extent in mice treated with 10 mg/kg”. Further, in data set [5] (ELISA, SJL/J mice, both treatment doses), the “secretion of IFN-γ” value is given as “dramatic reduction”. For the same molecule, in [5] (repeated in C57BL/6 and MBP Ac1-11-specific transgenic mice), the “Th2 bias (proliferation and cytokines)” value was “promoted an almost identical Th2 bias”. In data set [6], the “phosphorylated STAT6” value was “phosphorylated STAT6 is seen”. Also, the “expression of MHC II” value in data set [7] is reported as “could inhibit the expression of MHC II”.
For `CC[C@H](C)C(=O)O[C@H]1C[C@@H](C)C=C2C=C[C@H](C)[C@H](CC[C@@H]3C[C@@H](O)CC(=O)O3)[C@H]21` [lovastatin], in [8], the “production of iNOS and proinflammatory cytokines” value was “inhibited production of nitric oxide synthase (iNOS) and proinflammatory cytokines (TNFα, IL-1β and IL-6)”.
With “EYYKEYYKEYYK [ordered peptide with repeated motif EYYK]”, the “EAE in Lewis rats (mean disease score)” value in data set [9] is “effective in preventing and treating experimental autoimmune encephalomyelitis; also recorded: effectively prevent and treat EAE in Lewis rats; also recorded: prevents the development of EAE”.
As for insulin, the “diabetes in NOD mice” value in data set [10] is on record as “prevents disease”.
